Measured values from patent publication US20210379067A1 (iOmx Therapeutics AG, priority 2018, published 2021).

How the values were obtained:
[1] = tested on: PANC-1-luc cells; experiment: Sensitisation of tumour cells to in-vitro TNF attack (luciferase-based killing assay); assay type: cell-based, human; settings: compound plus rHuTNF (10 ng/mL) vs compound alone; FIG. 6
Description: R&D Systems), and also the speed of onset of this effect. PANC1-luc is an HLA-A2.1+ luciferase-expressing pancreatic adenocarcinoma (PDAC) tumour cell line, and […]-A2-luc is an HLA-A2.1+ luciferase-expressing melanoma tumour cell line. […] After lysis, luciferase assay buffer is added and immediately the luciferase intensity was measured by using the TECAN-Spark microplate reader. The PANC1-luc cell line is constructed as follows: PANC-1 cells acquired from the American Type Cell Culture (ATCC). Tumour cells are transfected with a pEGFP-Luc plasmid, using TransIT-LT1 (Mirus) as transfection reagent. Transfected cells are selected with 1 mg/mL of G418/Geneticin, and 14 days after selection EGFP+ cells are sorted using, eg a BD […] II cell sorter.

[2] = target: T1, RAF1 (Homo sapiens, UniProt P04049, Y340D/Y341D); experiment: Kinase Profiler single-point (1 uM) inhibition; assay type: biochemical; settings: 1 uM compound, read-out: residual activity class (FIG. 3)
T1 construct: purchased ProQinase, Freiburg, Germany (Kinase Profiler service)

[3] = tested on: KU812 tumours; settings: large KU812 tumours; 50 mg/kg/day for 5 days; cited from earlier work
[4] = tested on: K562 CML cells; settings: similar study, cited from earlier work
[5] = target: T2, JAK1 aa583-1154 wt (Homo sapiens, UniProt P23458); experiment: Kinase Profiler single-point (1 uM) inhibition; assay type: biochemical
T2 construct: JAK1 aa583-1154 wt; purchased ProQinase

[6] = target: T3, SIK3 (Homo sapiens, UniProt Q9Y2K2); experiment: 33PanQinase radiometric protein kinase assay (IC50); assay type: biochemical
T3 construct: purchased ProQinase
Description: (§1) Incorporation of 33Pi was determined with a microplate scintillation counter (Microbeta, Wallac).

[7] = target: T4, SIK1 (Homo sapiens, UniProt P57059); experiment: as above; assay type: biochemical
T4 construct: purchased ProQinase
Description: as §1

[8] = target: T5, SIK2 (Homo sapiens, UniProt Q9H0K1); experiment: as above; assay type: biochemical
T5 construct: purchased ProQinase
Description: as §1

[9] = tested on: M579-A2-luc cells; experiment: Sensitisation of tumour cells to in-vitro TNF attack (luciferase-based viability readout); assay type: cell-based, human; settings: TNF 10 ng/mL; compound between about 10 and 100 nM; FIG. 7
Description: PANC1-luc is an HLA-A2.1+ luciferase-expressing pancreatic adenocarcinoma (PDAC) tumour cell line, and M579-A2-luc is an HLA-A2.1+ luciferase-expressing melanoma tumour cell line.
After lysis, luciferase assay buffer is added and immediately the luciferase intensity was measured by using the TECAN-Spark microplate reader.

[10] = tested on: MDR1; experiment: in vitro; settings: dog, MDCK-MDR1
[11] = Human liver microsomal stability; assay type: in vitro ADME
[12] = in vitro; settings: dog, MDCK
[13] = Mouse liver microsomal stability; assay type: in vitro ADME; settings: liver microsomes, read-out: Intrinsic clearance
[14] = tested on: K562 human CML tumours; settings: high doses; cited from earlier work
[15] = target: T6, SRC (Homo sapiens, UniProt P12931); experiment: 33PanQinase radiometric protein kinase assay (IC50); assay type: biochemical
T6 construct: GST; HIS; purchased ProQinase (inferred from the trademark)
Description: as §1

[16] = target: T7, ABL1 wt (Homo sapiens, UniProt P00519); experiment: as above; assay type: biochemical
T7 construct: the ABL1 wild-type protein (amino acids P118-S525); purchased ProQinase
T7 sequence (P00519 118-535 limits assumed): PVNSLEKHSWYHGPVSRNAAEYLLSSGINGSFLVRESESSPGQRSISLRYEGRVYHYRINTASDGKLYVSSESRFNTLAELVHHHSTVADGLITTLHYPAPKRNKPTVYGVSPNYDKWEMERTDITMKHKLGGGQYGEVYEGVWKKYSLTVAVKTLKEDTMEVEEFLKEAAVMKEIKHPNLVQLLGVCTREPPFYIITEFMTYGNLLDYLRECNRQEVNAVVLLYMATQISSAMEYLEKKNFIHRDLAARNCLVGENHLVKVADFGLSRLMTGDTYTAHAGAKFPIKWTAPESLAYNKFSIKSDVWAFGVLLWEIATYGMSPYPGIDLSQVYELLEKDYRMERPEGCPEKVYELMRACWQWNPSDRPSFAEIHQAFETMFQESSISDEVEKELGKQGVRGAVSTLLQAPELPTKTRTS
Description: as §1

T3 sequence (Q9Y2K2 whole entry): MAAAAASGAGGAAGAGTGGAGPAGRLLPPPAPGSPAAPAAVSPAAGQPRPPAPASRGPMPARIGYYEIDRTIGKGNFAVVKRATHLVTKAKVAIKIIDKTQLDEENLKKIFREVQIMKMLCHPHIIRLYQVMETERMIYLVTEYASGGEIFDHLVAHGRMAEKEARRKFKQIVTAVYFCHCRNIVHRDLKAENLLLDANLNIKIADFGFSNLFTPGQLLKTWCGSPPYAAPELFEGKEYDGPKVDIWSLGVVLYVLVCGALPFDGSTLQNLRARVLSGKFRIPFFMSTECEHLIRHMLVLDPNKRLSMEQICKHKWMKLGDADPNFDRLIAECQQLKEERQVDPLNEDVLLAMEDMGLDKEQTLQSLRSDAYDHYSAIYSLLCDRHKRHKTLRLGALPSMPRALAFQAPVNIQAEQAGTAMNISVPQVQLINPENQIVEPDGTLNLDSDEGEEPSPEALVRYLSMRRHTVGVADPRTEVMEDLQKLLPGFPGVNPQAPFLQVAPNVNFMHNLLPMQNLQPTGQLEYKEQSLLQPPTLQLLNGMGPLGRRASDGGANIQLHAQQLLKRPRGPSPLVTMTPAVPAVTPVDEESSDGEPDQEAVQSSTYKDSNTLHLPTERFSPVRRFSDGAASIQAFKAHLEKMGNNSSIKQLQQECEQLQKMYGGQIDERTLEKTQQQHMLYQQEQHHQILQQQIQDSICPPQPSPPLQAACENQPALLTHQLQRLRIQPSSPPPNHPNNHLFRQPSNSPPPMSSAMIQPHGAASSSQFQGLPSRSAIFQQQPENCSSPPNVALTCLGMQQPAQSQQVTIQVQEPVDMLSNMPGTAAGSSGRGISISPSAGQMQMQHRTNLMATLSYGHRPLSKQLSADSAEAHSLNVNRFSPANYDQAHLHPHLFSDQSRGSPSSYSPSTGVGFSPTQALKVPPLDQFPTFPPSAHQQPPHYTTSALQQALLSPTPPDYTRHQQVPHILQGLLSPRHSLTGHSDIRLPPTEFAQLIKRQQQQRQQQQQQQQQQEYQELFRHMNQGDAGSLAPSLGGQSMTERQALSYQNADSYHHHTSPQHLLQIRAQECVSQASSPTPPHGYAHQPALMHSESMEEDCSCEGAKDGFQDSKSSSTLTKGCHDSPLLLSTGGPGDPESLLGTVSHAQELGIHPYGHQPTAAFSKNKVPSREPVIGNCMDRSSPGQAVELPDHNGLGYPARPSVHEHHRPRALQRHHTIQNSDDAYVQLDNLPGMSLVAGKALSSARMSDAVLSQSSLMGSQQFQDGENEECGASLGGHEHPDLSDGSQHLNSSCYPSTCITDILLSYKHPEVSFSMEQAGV
T4 sequence (P57059 whole entry): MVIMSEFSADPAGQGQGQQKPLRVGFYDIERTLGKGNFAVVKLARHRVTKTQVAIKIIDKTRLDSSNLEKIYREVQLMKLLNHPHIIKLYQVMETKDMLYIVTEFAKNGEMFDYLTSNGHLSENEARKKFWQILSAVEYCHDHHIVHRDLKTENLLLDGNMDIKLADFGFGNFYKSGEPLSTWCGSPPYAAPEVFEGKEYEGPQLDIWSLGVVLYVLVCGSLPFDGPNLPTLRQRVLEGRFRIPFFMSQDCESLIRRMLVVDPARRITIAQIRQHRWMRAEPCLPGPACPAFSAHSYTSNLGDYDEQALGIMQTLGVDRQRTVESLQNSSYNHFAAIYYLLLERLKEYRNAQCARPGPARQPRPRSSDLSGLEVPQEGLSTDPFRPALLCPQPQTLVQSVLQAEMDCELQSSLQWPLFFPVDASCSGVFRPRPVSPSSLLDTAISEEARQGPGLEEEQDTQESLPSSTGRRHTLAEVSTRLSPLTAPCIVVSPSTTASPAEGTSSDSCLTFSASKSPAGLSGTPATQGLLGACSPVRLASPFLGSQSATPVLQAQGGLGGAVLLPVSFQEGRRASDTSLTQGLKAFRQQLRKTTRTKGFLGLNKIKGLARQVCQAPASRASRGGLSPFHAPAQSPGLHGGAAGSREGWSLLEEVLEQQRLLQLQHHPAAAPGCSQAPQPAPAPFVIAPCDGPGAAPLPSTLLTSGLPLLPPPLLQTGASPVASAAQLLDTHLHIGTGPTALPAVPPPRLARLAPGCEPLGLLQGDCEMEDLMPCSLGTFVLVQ
T5 sequence (Q9H0K1 whole entry): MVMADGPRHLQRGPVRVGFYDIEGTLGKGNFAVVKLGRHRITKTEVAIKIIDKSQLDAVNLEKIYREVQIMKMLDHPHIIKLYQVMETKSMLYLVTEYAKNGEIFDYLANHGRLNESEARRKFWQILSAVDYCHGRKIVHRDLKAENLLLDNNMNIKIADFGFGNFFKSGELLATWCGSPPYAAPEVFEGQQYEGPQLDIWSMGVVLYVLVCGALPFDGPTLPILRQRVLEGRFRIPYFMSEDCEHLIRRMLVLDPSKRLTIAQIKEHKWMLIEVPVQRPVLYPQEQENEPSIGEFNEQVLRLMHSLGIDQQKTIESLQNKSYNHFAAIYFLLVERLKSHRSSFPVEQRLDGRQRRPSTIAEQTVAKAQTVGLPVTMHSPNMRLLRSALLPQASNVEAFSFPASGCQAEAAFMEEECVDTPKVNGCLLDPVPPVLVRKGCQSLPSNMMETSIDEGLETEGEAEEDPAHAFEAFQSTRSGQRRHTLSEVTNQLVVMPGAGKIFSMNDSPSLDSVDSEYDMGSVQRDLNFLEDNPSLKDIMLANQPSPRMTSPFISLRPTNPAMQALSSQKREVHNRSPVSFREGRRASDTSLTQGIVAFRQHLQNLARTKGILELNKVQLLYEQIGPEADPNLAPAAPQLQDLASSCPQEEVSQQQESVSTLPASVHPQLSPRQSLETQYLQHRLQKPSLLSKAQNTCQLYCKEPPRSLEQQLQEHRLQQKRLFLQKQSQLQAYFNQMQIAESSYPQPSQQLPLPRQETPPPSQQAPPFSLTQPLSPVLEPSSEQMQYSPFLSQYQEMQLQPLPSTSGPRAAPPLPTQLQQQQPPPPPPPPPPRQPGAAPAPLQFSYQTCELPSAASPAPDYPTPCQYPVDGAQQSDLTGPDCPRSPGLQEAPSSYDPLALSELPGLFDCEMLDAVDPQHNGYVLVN
T2 sequence (P23458 583-1154): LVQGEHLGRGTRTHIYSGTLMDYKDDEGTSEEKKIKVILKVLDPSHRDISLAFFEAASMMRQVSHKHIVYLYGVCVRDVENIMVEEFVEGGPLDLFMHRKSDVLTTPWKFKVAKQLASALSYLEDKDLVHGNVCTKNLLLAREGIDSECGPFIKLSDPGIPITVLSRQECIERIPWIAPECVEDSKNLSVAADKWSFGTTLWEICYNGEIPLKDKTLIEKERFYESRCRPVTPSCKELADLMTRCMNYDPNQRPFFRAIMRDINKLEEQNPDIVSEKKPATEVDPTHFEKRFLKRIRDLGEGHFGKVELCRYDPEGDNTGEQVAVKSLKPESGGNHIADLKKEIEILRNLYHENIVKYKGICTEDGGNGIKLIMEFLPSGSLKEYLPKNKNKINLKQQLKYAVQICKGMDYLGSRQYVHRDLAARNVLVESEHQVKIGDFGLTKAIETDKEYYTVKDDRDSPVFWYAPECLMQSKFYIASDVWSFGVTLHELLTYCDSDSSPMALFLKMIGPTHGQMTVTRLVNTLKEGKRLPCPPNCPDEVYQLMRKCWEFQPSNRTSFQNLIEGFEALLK
T6 sequence (P12931 whole entry): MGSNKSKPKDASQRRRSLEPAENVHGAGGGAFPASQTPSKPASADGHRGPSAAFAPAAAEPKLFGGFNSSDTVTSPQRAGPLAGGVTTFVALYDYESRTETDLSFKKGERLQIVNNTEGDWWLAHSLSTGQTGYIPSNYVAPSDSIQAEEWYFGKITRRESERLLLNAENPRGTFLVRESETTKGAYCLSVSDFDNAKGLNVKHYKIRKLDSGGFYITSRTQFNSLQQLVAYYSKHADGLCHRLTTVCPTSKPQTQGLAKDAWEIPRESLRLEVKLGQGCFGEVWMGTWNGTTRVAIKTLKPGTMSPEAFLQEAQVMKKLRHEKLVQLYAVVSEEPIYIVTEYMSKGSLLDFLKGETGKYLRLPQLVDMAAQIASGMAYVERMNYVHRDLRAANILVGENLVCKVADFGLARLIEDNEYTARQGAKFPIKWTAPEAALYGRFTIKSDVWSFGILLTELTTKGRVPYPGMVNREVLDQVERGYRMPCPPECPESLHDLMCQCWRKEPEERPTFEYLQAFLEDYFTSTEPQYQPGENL
T1 sequence (P04049 307-648 Y340D/Y341D limits assumed): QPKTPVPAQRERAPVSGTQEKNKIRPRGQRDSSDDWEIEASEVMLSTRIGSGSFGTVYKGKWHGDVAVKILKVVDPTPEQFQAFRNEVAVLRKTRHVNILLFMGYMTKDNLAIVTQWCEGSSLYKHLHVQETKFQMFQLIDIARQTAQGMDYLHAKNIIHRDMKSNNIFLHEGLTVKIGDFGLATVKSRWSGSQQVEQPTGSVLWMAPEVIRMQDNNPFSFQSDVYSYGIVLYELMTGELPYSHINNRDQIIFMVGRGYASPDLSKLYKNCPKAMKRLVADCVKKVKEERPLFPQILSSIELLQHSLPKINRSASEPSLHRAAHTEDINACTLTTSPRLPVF

Cc1nc(Nc2ncc(C(=O)Nc3c(C)cccc3Cl)s2)cc(N2CCN(CCO)CC2)n1 [Compound A8, N-(2-chloro-6-methylphenyl)-2-((6-(4-(2-hydroxyethyl)piperazin-1-yl)-2-methylpyrimidin-4-yl)amino)thiazole-5-carboxamide]
sensitisation of tumour cells to TNF attack [1]: sensitisation of tumour-cells to in-vitro TNF-attack | remaining activity at 1 µM [2]: < 25% | tumour response [3]: curative | survival ([4]; 10 and 30 mg/kg/day): increased survival | Residual activity (%) at 1 uM [5]: 41%

CCOc1cccc(Cl)c1NC(=O)c1cnc(Nc2cc(N3CCN(CCO)CC3)nc(C)n2)s1 [Compound B8, N-(2-Chloro-6-ethoxyphenyl)-2-((6-(4-(2-hydroxyethyl)piperazin-1-yl)-2-methylpyrimidin-4-yl)amino)thiazole-5-carboxamide]
inhibitory activity [6]: low inhibitory activity against SIK family members | inhibitory activity [7]: low inhibitory activity against SIK family members | inhibitory activity [8]: low inhibitory activity against SIK family members | tumour cell cytotoxicity with TNF compared to inhibitor alone [9]: fails to exhibit cytotoxicity

Cc1nc(Nc2ncc(C(=O)Nc3c(Cl)ccnc3C)s2)cc(N2CCN(CCO)CC2)n1 [Compound B3, N-(4-chloro-2-methylpyridin-3-yl)-2-((6-(4-(2-hydroxyethyl)piperazin-1-yl)-2-methylpyrimidin-4-yl)amino)thiazole-5-carboxamide]
Papp A→B [10]: < 0.8 ×10⁻⁶ cm/s | Papp B→A [10]: 20 ×10⁻⁶ cm/s | sensitisation of tumour cells to TNF attack [1]: sensitisation of tumour-cells to in-vitro TNF-attack | drug remaining at 40 min, times more than dasatinib ([11]; hLM assay): 10 times | half-life, times longer than dasatinib ([11]; hLM assay): ~6 times | microsomal CLint ([11]; liver microsomes, human liver microsomal stability, read-out: Intrinsic clearance): 24 µL/min/mg | Papp A→B [12]: 6.8 ×10⁻⁶ cm/s | Papp B→A [12]: 20 ×10⁻⁶ cm/s | microsomal CLint [13]: 22 µL/min/mg

Cc1ccc(NC(=O)c2ccc(CN3CCN(C)CC3)cc2)cc1Nc1nccc(-c2cccnc2)n1 [imatinib]
intracranial tumour growth ([4]; 200 mg/kg/day): failed to inhibit intracranial tumour growth | tumour response [14]: failed to produce a comparative response

Cc1nc(Nc2ncc(C(=O)Nc3c(Cl)cccc3Br)s2)cc(N2CCN(CCO)CC2)n1 [Compound B1, N-(2-bromo-6-chlorophenyl)-2-((6-(4-(2-hydroxyethyl)piperazin-1-yl)-2-methylpyrimidin-4-yl)amino)thiazole-5-carboxamide]
inhibitory activity [6]: pan-SIK and ABL1 & SRC inhibitor | inhibitory activity [7]: pan-SIK and ABL1 & SRC inhibitor | inhibitory activity [8]: pan-SIK and ABL1 & SRC inhibitor | tumour cell cytotoxicity with TNF compared to inhibitor alone [9]: increased cytotoxicity

COc1c(F)cccc1NC(=O)c1cnc(Nc2cc(N3CCN(CCO)CC3)nc(C)n2)s1 [Compound B4, N-(3-fluoro-2-methoxyphenyl)-2-((6-(4-(2-hydroxyethyl)piperazin-1-yl)-2-methylpyrimidin-4-yl)amino)thiazole-5-carboxamide]
inhibitory activity [15]: potent inhibitor of ABL1 & SRC | inhibitory activity [6]: weak inhibitor of SIK3 | inhibitory activity [7]: strong inhibitor or SIK1 and SIK2 | inhibitory activity [8]: strong inhibitor or SIK1 and SIK2 | inhibitory activity [16]: potent inhibitor of ABL1 & SRC | tumour cell cytotoxicity with TNF compared to inhibitor alone [9]: fails to exhibit cytotoxicity
